This passage reports IC50 results from ChEMBL document CHEMBL5726789, “Substituted 6, 7-dialkoxy-3-isoquinoline derivatives as inhibitors of phosphodiesterase 10 (PDE 10A)” (2018).

Structures are written as SMILES.

This test deals with cAMP and cAMP-inhibited cGMP 3',5'-cyclic phosphodiesterase 10A (Homo sapiens, UniProt Q9Y233). Briefly: Homogenous Time-Resolved Fluorescence Resonance Energy Transfer (TR-FRET) Technology: The phosphodiesterase assay was developed using the LANCE® cAMP kit (PerkinElmer). The assay buffer contained HBSS with 5 mM HEPES, 0.1% BSA, and 1.5 mM MgCl2, pH 7.4. PDE10A (BPS Bioscience) was used at 200 pg/well (with a specific activity of 3200 pmole/min/μg with assay conditions: 10 mM Tris-HCl, pH 7.4, 10 mM MgCl2, 1 mM MnCl2, 200 μM cAMP, 2.5 kU 5′ nucleotidase, 37° C., 20 min) and PDE4D3 (BPS Bioscience) was used at 100 pg/well (with a specific activity of 32713 pmole/min/μg with assay conditions: 10 mM Tris-HCl, pH 7.4, 10 mM MgCl2, 1 mM MnCl2, 200 μM cAMP, 2.5 kU 5′ nucleotidase, 37° C., 20 min). The Biotin-cAMP tracer, supplied in 10 mmol/L Tris-HCl buffered (pH 8.0) salt solution with 1 mmol/L ethylenediaminetetraacetic acid (EDTA), 0.1% bovine serum albumin (BSA), and 0.05% sodium azide, is used at a dilution of 1/375. The assay detection mixture contained the LANCE Eu-W8044 labeled streptavidin 1/2250 (supplied in 50 mmol/L Tris-HCl buffered (pH 7.8) salt solution with 0.9% sodium chloride (NaCl), 0.1% BSA, and 0.05% sodium azide) and the Alexa Fluor® 647-anti cAMP antibody 1/200 (supplied in 50 mmol/L Tris-HCl buffered (pH 7.8) salt solution with 0.9% NaCl, 0.1% BSA, and 0.05% sodium azide). Chemical compounds were dissolved in DMSO (final concentration 2% (v/v)). A general note: TR-FRET usually uses a lanthanide donor and a delayed reading to cut background.
Sequence of cAMP and cAMP-inhibited cGMP 3',5'-cyclic phosphodiesterase 10A (Q9Y233 whole entry): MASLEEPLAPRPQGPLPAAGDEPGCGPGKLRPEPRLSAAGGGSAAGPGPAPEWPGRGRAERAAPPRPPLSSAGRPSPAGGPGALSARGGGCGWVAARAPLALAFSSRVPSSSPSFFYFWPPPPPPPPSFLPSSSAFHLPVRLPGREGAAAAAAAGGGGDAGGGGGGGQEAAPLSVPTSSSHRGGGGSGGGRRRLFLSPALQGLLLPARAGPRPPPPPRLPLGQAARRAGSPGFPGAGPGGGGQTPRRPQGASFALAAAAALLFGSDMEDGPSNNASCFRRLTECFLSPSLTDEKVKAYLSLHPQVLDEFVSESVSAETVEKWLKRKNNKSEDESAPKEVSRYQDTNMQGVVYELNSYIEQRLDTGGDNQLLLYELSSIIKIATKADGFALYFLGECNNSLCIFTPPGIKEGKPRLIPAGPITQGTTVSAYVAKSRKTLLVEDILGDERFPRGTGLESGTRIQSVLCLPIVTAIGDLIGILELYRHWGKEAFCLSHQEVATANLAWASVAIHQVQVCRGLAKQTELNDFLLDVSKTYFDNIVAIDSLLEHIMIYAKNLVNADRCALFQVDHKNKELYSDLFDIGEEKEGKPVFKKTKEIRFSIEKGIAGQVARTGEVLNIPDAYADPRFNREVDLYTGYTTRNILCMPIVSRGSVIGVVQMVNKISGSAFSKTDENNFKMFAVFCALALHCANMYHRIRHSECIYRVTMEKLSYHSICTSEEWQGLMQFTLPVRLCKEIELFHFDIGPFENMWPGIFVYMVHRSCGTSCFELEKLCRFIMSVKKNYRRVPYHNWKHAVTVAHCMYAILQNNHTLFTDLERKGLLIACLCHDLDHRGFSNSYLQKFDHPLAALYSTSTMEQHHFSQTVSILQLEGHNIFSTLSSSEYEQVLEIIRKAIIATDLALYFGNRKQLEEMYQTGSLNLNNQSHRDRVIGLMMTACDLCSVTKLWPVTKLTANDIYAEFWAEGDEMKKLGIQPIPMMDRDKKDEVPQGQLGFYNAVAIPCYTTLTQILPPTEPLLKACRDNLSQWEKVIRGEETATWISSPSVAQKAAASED
In the case of `CCCc1ncc(Cc2cc3cc(OC)ccc3nc2OCC#N)c2cc(OC)c(OC)cc12`, the concentration for half-maximal inhibition (IC50) is 158 nM.
With `CCCc1ncc(Cc2ccc3cccc(OC(C)(C)C(N)=O)c3n2)c2cc(OC)c(OC)cc12` the figure was 59 nM; with `CCn1c2ccccc2c2cc(Cc3cncc4cc(OC)c(OC)cc34)ccc21`, 26 nM.

As usually defined, the IC50 is the concentration at which inhibition is half-maximal.
